Results from patent US20080233051A1, “Nanoparticles for two-photon activated photodynamic therapy and imaging” (priority 2006, published 2008).

Columns and labels:
[1] = Fluorescence quantum yield of BDSA in solution and as nanoaggregates; format: physicochemical
From the text: A representative transmission electron microscopic (TEM) image of the obtained nanoaggregates with a diameter of 44±7 nm is shown in FIG. 1a. […] The fluorescence quantum yield (Φf) of nanoaggregated state varies (0.1˜0.3), depending on the preparation conditions, including solvent, solvent/water ratio, and overall dye concentration, etc. […] No notable sign of H- or J-aggregation was observed, implying that molecular stacking is neither too close nor well ordered within the nanoaggregated structure. The fluorescence quenching in solution can be understood as dominant non-radiative decay, enhanced by free intramolecular torsional motion in solution, as in the case of flexible molecules showing viscosity-dependent fluorescence. Moreover, the weak, broad, and red-shifted emission of the solution, compared to that of the aggregate, implies the existence of large-amplitude relaxation in the excited state, such as twisted intramolecular charge transfer (TICT) which often acts as an intramolecular fluorescence quencher due to the nπ* characteristics. This is supported by our observation of intense and blue-shifted monomer fluorescence from a dilute solid solution of BDSA in PMMA film, where isolated molecules are frozen in the distorted form by rigid matrix, to prevent fluorescence quenching motion. The structural effect on aggregate formation and fluorescence was studied with a specific comparison between BDSA and the 1,4-phenylene analogue, BDSB, by varying the solvent/water ratio.

[2] = One- and two-photon excited fluorescence of HPPH/BDSA nanoparticles (intraparticle FRET); format: physicochemical; settings: free HPPH, self-aggregation
Method: To produce fluorescent domains of BDSA aggregates in the particle matrix, the following amounts were loaded to induce phase separation: 10, 20, and 30 wt % with respect to the total VTES amount. Fluorescence lifetime measurements were performed using Time correlated Single Photon Counting (TCSPC) technique. For this measurements, Ti:Sapphire laser providing 800 nm femtosecond pulses was used as excitation source and a SPC-830 TCSPC module (Becker & Hickl) with an H7422 (Hamamatsu) detector with a response time in the range of 250 ps was used for the measurements. […] For an estimation of the instrument response function (IRF), a dye with a known fluorescence lifetime (from Streak camera measurements), less than 50 ps was used. […] For quantitative comparison, the concentrations of the nanoparticle water dispersions were kept the same for all the sample sets. The dispersions of all examined HPPH-loaded nanoparticles had the absorbance of 0.07 at 665 nm.
When excited at 425 nm, the obtained fluorescence spectrum of the coencapsulating nanoparticles is a composite of the emission contributions from the donor BDSA aggregates and the acceptor HPPH. Compared with the fluorescence intensities of the nanoparticles containing the corresponding amount of each dye, BDSA emission is quenched by 70% and HPPH emission is amplified ca. 5 times, indicating the occurrence of FRET. […]

| SMILES | Fluorescence quantum yield (Φf) ([1]; NMP solution) | Fluorescence intensification by aggregation ([1]; aggregate versus NMP solution) | Fluorescence change on aggregate formation ([1]; varying solvent/water ratio, THF/H2O, 5 μM (FIG. 2)) | Fluorescence in water dispersions [2] |
| --- | --- | --- | --- | --- |
| CN(CCOC(=O)c1ccccc1)c1ccc(C=Cc2ccc(C=Cc3c4ccccc4c(C=Cc4ccc(C=Cc5ccc(N(C)CCOC(=O)c6ccccc6)cc5)cc4)c4ccccc34)cc2)cc1 [BDSA, 9,10-Bis(4′-{4″-[N-methyl-N-(2-benzoyloxyethyl)amino]styryl}styryl)anthracene] | ~0.009 | more than 30 times | Enhanced fluorescence is seen | – |
| CCCCCCOC(C)C1=C(C)c2cc3nc(c4c5[nH]c(cc6[nH]c(cc1n2)c(C)c6CC)c(C)c5C(=O)C4)C(CCC(=O)O)C3C (stereo not shown) [HPPH, 2-devinyl-2-(1-hexyloxyethyl)pyropheophorbide] | – | – | – | completely quenched |
